“And” between values parts separate entries of the source, which are not always exact repeats. Equal values may be shown once.
Assay: xn = mol fraction of the nth substance listed
Conditions: 101 kPa, Liquid, Vibrating tube method

CCCOCC(C)O (centres undefined) [1-propoxy-2-propanol] + O
mass density
Conditions | 293.15 K | 298.15 K | 303.15 K
x1 = 0.001639 | – | 996.607 kg/m3 | 995.166 kg/m3
x1 = 0.003265 | – | 996.203 kg/m3 | 994.729 kg/m3
x1 = 0.01049 | – | 994.754 kg/m3 | 993.101 kg/m3
x1 = 0.01741 | – | 993.639 kg/m3 | 991.738 kg/m3
x1 = 0.02413 | – | 992.449 kg/m3 | 990.242 kg/m3
x1 = 0.02492 | – | 992.281 kg/m3 | 990.035 kg/m3
x1 = 0.03341 | – | 990.099 kg/m3 | 987.376 kg/m3
x1 = 0.0411 | – | 987.401 kg/m3 | 984.348 kg/m3
x1 = 0.04904 | – | 984.302 kg/m3 | 981.013 kg/m3
x1 = 0.05896 | – | 980.443 kg/m3 | 976.913 kg/m3
x1 = 0.06919 | – | 976.629 kg/m3 | 972.832 kg/m3
x1 = 0.07722 | – | 973.676 kg/m3 | 969.873 kg/m3
x1 = 0.08896 | – | 969.756 kg/m3 | 965.792 kg/m3
x1 = 0.09833 | – | 966.718 kg/m3 | 962.723 kg/m3
x1 = 0.1083 | – | 963.724 kg/m3 | 959.684 kg/m3
x1 = 0.1182 | – | 960.927 kg/m3 | 956.826 kg/m3
x1 = 0.1249 | – | 959.154 kg/m3 | 955.036 kg/m3
x1 = 0.1283 | – | 958.25 kg/m3 | 954.135 kg/m3
x1 = 0.1365 | – | 956.19 kg/m3 | 952.054 kg/m3
x1 = 0.1475 | – | 953.581 kg/m3 | 949.414 kg/m3
x1 = 0.1677 | – | 949.056 kg/m3 | 944.898 kg/m3
x1 = 0.1955 | – | 943.61 kg/m3 | 939.419 kg/m3
x1 = 0.2281 | – | 937.893 kg/m3 | 933.693 kg/m3
x1 = 0.2743 | – | 931.11 kg/m3 | 926.81 kg/m3
x1 = 0.3208 | – | 924.917 kg/m3 | 920.58 kg/m3
x1 = 0.3483 | – | 921.878 kg/m3 | 917.532 kg/m3
x1 = 0.3738 | – | 919.12 kg/m3 | 914.74 kg/m3
x1 = 0.4214 | – | 914.335 kg/m3 | 909.931 kg/m3
x1 = 0.4787 | – | 909.35 kg/m3 | 904.97 kg/m3
x1 = 0.5257 | – | 905.586 kg/m3 | 901.122 kg/m3
x1 = 0.548 | – | 904.085 kg/m3 | 899.604 kg/m3
x1 = 0.5771 | – | 902.07 kg/m3 | 897.57 kg/m3
x1 = 0.5977 | 905.093 kg/m3 | 900.499 kg/m3 | 896.129 kg/m3
x1 = 0.6247 | 903.425 kg/m3 | 898.961 kg/m3 | 894.432 kg/m3
x1 = 0.6264 | 903.218 kg/m3 | 898.785 kg/m3 | 894.261 kg/m3
x1 = 0.6385 | 902.498 kg/m3 | 897.87 kg/m3 | 893.542 kg/m3
x1 = 0.672 | 900.577 kg/m3 | 896.108 kg/m3 | 891.567 kg/m3
x1 = 0.6758 | 900.301 kg/m3 | 895.81 kg/m3 | 891.293 kg/m3
x1 = 0.6793 | 900.121 kg/m3 | 895.632 kg/m3 | 891.142 kg/m3
x1 = 0.7192 | 897.954 kg/m3 | 893.432 kg/m3 | 888.909 kg/m3
x1 = 0.7272 | 897.467 kg/m3 | 892.945 kg/m3 | 888.391 kg/m3
x1 = 0.7448 | 896.614 kg/m3 | 892.14 kg/m3 | 887.56 kg/m3
x1 = 0.7589 | 895.887 kg/m3 | 891.371 kg/m3 | 886.848 kg/m3
x1 = 0.7682 | 895.456 kg/m3 | 890.967 kg/m3 | 886.382 kg/m3
x1 = 0.7858 | 894.6 kg/m3 | 890.07 kg/m3 | 885.47 kg/m3
x1 = 0.7981 | 894.001 kg/m3 | 889.483 kg/m3 | 884.923 kg/m3
x1 = 0.8224 | 892.828 kg/m3 | 888.311 kg/m3 | 883.721 kg/m3
x1 = 0.8398 | 891.636 kg/m3 | 887.602 kg/m3 | 882.984 kg/m3
x1 = 0.8588 | 891.133 kg/m3 | 886.589 kg/m3 | 882.007 kg/m3
x1 = 0.8792 | 890.346 kg/m3 | 885.821 kg/m3 | 881.196 kg/m3
x1 = 0.8796 | 890.337 kg/m3 | 885.871 kg/m3 | 881.204 kg/m3
x1 = 0.8993 | 889.399 kg/m3 | 884.854 kg/m3 | 880.259 kg/m3
x1 = 0.9197 | 888.659 kg/m3 and 888.679 kg/m3 | 884.155 kg/m3 and 884.109 kg/m3 | 879.548 kg/m3 and 879.479 kg/m3
x1 = 0.9388 | 887.803 kg/m3 | 883.236 kg/m3 | 878.623 kg/m3
x1 = 0.9486 | 887.413 kg/m3 | 882.854 kg/m3 | 878.219 kg/m3
x1 = 0.9609 | 886.918 kg/m3 | 882.36 kg/m3 | 877.745 kg/m3
x1 = 0.9628 | 887.059 kg/m3 | 882.424 kg/m3 | 877.865 kg/m3
x1 = 0.9716 | 886.524 kg/m3 | 881.962 kg/m3 | 877.362 kg/m3
x1 = 0.9798 | 886.193 kg/m3 | 881.641 kg/m3 | 876.998 kg/m3
x1 = 0.9818 | 886.123 kg/m3 | 881.551 kg/m3 | 876.955 kg/m3
x1 = 0.9919 | 885.746 kg/m3 | 881.183 kg/m3 | 876.546 kg/m3
x1 = 1 | 885.456 kg/m3 | 880.837 kg/m3 | 876.279 kg/m3
